Numbers after ± are expanded uncertainties.
Details: Liquid; for mass density: 298.15 K, 101.33 kPa, Vibrating tube method; for Normal boiling temperature: Ebulliometric method (Recirculating still)

Row | mass density [kg/m3] | Normal boiling temperature [°C] | Structure (SMILES)
1 | 920.68 ± 0.12 | 176.1 ± 0.4 | CC12CCC(CC1)C(C)(C)O2 [1,3,3-trimethyl-2-oxabicyclo[2.2.2]octane]
2 | 785.27 ± 0.15 | 78.2 ± 0.4 | CCO [ethanol]
